Where two headings read alike, the source gives them in different places.
Assays:
[1] = system: human monocytic cell line U937; experiment: Human U937 cellular necroptosis assay (TNFalpha + z-VAD-FMK, Cell Titer-Glo viability); assay type: cell-based; details: U937 cells, 25 ng/mL human TNFalpha + 25 μM z-VAD-FMK, read-out: hU937 Avg IC50
In short: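 Readout is CellTiter-Glo 2.0 luminescence after 22 h at 37° C with compound, in cells triggered by human TNFalpha (25 ng/mL) and z-VAD-FMK (25 μM) in phenol red-free RPMI/10% FBS. Values are run-averaged IC50s from a four-parameter logistic curve.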

RIPK1 = RIPK1 (Homo sapiens (Human), UniProt Q13546); experiment: ADP-Glo kinase assay (RIPK1 activity, conversion of ATP to ADP); assay type: biochemical; details: for IC50: 5 nM RIPK1, 50 μM ATP, 6 h reaction, read-out: RIPK1 Enzyme Avg IC50
In short: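 RIPK1 (5 nM final) was preincubated 10 min at rt with 1:3-diluted compounds in HEPES pH 7.5/MgCl2/DTT/BSA/CHAPS buffer. ATP (50 μM final) was then added for 6 h, and ADP formed was read by ADP-Glo luminescence. IC50 values came from four-parameter logistic fitting.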

Sequence of RIPK1 (Q13546 1-327): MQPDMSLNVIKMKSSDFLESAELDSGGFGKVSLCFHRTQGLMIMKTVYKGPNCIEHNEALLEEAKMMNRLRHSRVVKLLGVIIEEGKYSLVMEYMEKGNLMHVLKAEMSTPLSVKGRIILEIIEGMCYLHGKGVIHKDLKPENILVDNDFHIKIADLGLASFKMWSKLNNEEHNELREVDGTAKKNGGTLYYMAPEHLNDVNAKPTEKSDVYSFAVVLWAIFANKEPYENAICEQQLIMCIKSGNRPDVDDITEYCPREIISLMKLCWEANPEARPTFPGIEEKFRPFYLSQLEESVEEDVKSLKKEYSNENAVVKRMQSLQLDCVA

IC50 (RIPK1) [nM]	observed potency relative to the other enantiomer (RIPK1; enantiomers separated by SFC, assay not named)	Molecule	IC50 ([1]; Homo sapiens, U-937, 22 h) [nM]	IC50 ([1]; 22 h) [nM]
145		O=C(N1N=CCC1c1cc(F)cc(F)c1)C12CC(Cn3cc4c(n3)CCC4)(C1)C2 (stereo not shown) [Example 144, (5-(3,5-difluorophenyl)-4,5-dihydro-1H-pyrazol-1-yl)(3-((5,6-dihydrocyclopenta[c]-pyrazol-2(4H)-yl)methyl)-bicyclo[1.1.1]pentan-1-yl)methanone]	1180	
11		O=C(N1N=CCC1c1cc(F)cc(F)c1)C12CC(COc3ccc(Br)cc3Cl)(C1)C2 (stereo not shown) [Example 330, (3-((4-bromo-2-chloro-phenoxy)methyl)bicyclo-[1.1.1]pentan-1-yl)(5-(3,5-difluorophenyl)-4,5-dihydro-1H-pyrazol-1-yl)methanone]	21	
375		Cc1cnc(C2CC=NN2C(=O)C23CC(Cn4cc(C#N)cn4)(C2)C3)cn1 (stereo not shown) [Example 131, 1-((3-(5-(5-methylpyrazin-2-yl)-4,5-dihydro-1H-pyrazole-1-carbonyl)bicyclo[1.1.1]-pentan-1-yl)methyl)-1H-pyrazole-4-carbonitrile]	1920	
139		Cc1ccc2c(cnn2CC23CC(C(=O)N4N=CCC4c4cncc(F)c4)(C2)C3)n1 (stereo not shown) [Example 132, (5-(5-fluoropyridin-3-yl)-4,5-dihydro-1H-pyrazol-1-yl)(3-((5-methyl-1H-pyrazolo[4,3-b]pyridin-1-yl)methyl)-bicyclo[1.1.1]pentan-1-yl)methanone]	826	
1120		O=C(N1N=CCC1c1cc(F)cc(F)c1)C12CC(Cn3cc(C4CC4)nn3)(C1)C2 (stereo not shown) [Example 159, (3-((4-cyclopropyl-1H-1,2,3-triazol-1-yl)methyl)bicyclo-[1.1.1]pentan-1-yl)(5-(3,5-difluorophenyl)-4,5-dihydro-1H-pyrazol-1-yl)methanone]	3610	
50		O=C(N1N=CCC1c1cc(F)cc(F)c1)C12CC(Cn3cc(F)c4ncc(F)cc43)(C1)C2 (stereo not shown) [Example 161, (3-((3,6-difluoro-1H-pyrrolo-[3,2-b]pyridin-1-yl)methyl)-bicyclo[1.1.1]pentan-1-yl)(5-(3,5-difluorophenyl)-4,5-dihydro-1H-pyrazol-1-yl)methanone]	157	
34		O=C(N1N=CCC1c1cc(F)cc(F)c1)C12CC(Cn3nc(Cl)c4ccccc43)(C1)C2 (stereo not shown) [Example 141, (3-((3-chloro-1H-indazol-1-yl)methyl)bicyclo[1.1.1]-pentan-1-yl)(5-(3,5-difluorophenyl)-4,5-dihydro-1H-pyrazol-1-yl)methanone]	58	
113		N#Cc1cnn(CC23CC(C(=O)N4N=CCC4c4ccccc4)(C2)C3)c1 (stereo not shown) [Example 138, 1-((3-(5-phenyl-4,5-dihydro-1H-pyrazole-1-carbonyl)-bicyclo[1.1.1]pentan-1-yl)methyl)-1H-pyrazole-4-carbonitrile]	417	
82		COc1cnn(CC23CC(C(=O)N4N=CCC4c4cc(F)cc(F)c4)(C2)C3)c1 (stereo not shown) [Example 160, (5-(3,5-difluorophenyl)-4,5-dihydro-1H-pyrazol-1-yl)(3-((4-methoxy-1H-pyrazol-1-yl)methyl)bicyclo[1.1.1]-pentan-1-yl)methanone]	404	
	more potent isomer	Cc1cc(F)c([C@@H]2CC=NN2C(=O)C23CC(COc4cnc(C#N)cn4)(C2)C3)cc1F [Example 197, (S)-5-((3-(5-(2,5-difluoro-4-methylphenyl)-4,5-dihydro-1H-pyrazole-1-carbonyl)bicyclo[1.1.1]pentan-1-yl)methoxy)pyrazine-2-carbonitrile]	0.77	
98		Cc1c2ccccc2nn1CC12CC(C(=O)N3N=CCC3c3cc(F)cc(F)c3)(C1)C2 (stereo not shown) [Example 152, (5-(3,5-difluorophenyl)-4,5-dihydro-1H-pyrazol-1-yl)(3-((3-methyl-2H-indazol-2-yl)-methyl)bicyclo[1.1.1]pentan-1-yl)methanone]	363	
49		O=C(N1N=CCC1c1cc(F)cc(F)c1)C12CC(Cn3nc4ccccc4c3Cl)(C1)C2 (stereo not shown) [Example 140, (3-((3-chloro-2H-indazol-2-yl)methyl)bicyclo[1.1.1]-pentan-1-yl)(5-(3,5-difluorophenyl)-4,5-dihydro-1H-pyrazol-1-yl)methanone]	53	
8.3		N#Cc1cnc(OCC23CC(C(=O)N4N=CCC4c4cc(F)cc(F)c4)(C2)C3)cn1 (stereo not shown) [Example 199, 5-((3-(5-(3,5-difluorophenyl)-4,5-dihydro-1H-pyrazole-1-carbonyl)bicyclo[1.1.1]pentan-1-yl)methoxy)pyrazine-2-carbonitrile]	9.3	
46		CN(CC12CC(C(=O)N3N=CCC3c3cc(F)cc(F)c3)(C1)C2)c1cc(C#N)ncn1 (stereo not shown) [Example 162, 6-(((3-(5-(3,5-difluorophenyl)-4,5-dihydro-1H-pyrazole-1-carbonyl)-bicyclo[1.1.1]pentan-1-yl)methyl)(methyl)amino)pyrimidine-4-carbonitrile]	210	

More lines, now with the values behind:

Molecule	IC50 (RIPK1) [nM]	observed potency relative to the other enantiomer (RIPK1; enantiomers separated by SFC, assay not named)	IC50 ([1]; Homo sapiens, U-937, 22 h) [nM]	IC50 ([1]; 22 h) [nM]
N#Cc1cccc(C2CC=NN2C(=O)C23CC(Cn4ncc5c(F)cccc54)(C2)C3)c1 (stereo not shown) [Example 82, 3-(1-(3-((4-fluoro-1H-indazol-1-yl)methyl)bicyclo-[1.1.1]pentane-1-carbonyl)-4,5-dihydro-1H-pyrazol-5-yl)benzonitrile]	11		31	
O=C(N1N=CCC1c1cc(F)cc(F)c1)C12CC(Cn3ncc4c(F)cccc43)(C1)C2 (stereo not shown) [Example 22, (5-(3,5-Difluorophenyl)-4,5-dihydro-1H-pyrazol-1-yl)(3-((4-fluoro-1H-indazol-1-yl)methyl)bicyclo[1.1.1]pentan-1-yl)methanone]	11		5	
N#Cc1cccc2nn(CC34CC(C(=O)N5N=CCC5c5cc(F)cc(F)c5)(C3)C4)cc12 (stereo not shown) [Example 60, 2-((3-(5-(3,5-difluorophenyl)-4,5-dihydro-1H-pyrazole-1-carbonyl)bicyclo[1.1.1]-pentan-1-yl)methyl)-2H-indazole-4-carbonitrile]	44		178	
Cc1nn(CC23CC(C(=O)N4N=CCC4c4cncc(F)c4)(C2)C3)c2ccc(C#N)cc12 (stereo not shown) [Example 130, 1-((3-(5-(5-fluoropyridin-3-yl)-4,5-dihydro-1H-pyrazole-1-carbonyl)bicyclo[1.1.1]-pentan-1-yl)methyl)-3-mcthyl-1H-indazole-5-carbonitrile]	238		1240	
NC(=O)c1cn(CC23CC(C(=O)N4N=CCC4c4cc(F)cc(F)c4)(C2)C3)nn1 (stereo not shown) [Example 54, 1-((3-(5-(3,5-difluorophenyl)-4,5-dihydro-1H-pyrazole-1-carbonyl)-bicyclo[1.1.1]pentan-1-yl)methyl)-1H-1,2,3-triazole-4-carboxamide]	409		2640	
N#Cc1cccc2c1cnn2CC12CC(C(=O)N3N=CCC3c3cc(F)cc(F)c3)(C1)C2 (stereo not shown) [Example 67, 1-((3-(5-(3,5-difluorophenyl)-4,5-dihydro-1H-pyrazole-1-carbonyl)bicyclo[1.1.1]-pentan-1-yl)methyl)-1H-indazole-4-carbonitrile]	19		54	
O=C(N1N=CCC1c1cc(F)cc(F)c1)C12CC(Cn3cc4ncccc4n3)(C1)C2 (stereo not shown) [Example 59, (3-((2H-pyrazolo[4,3-b]-pyridin-2-yl)methyl)bicyclo-[1.1.1]pentan-1-yl)(5-(3,5-difluorophenyl)-4,5-dihydro-1H-pyrazol-1-yl)methanone]	43		226	
N#Cc1cn(CC23CC(C(=O)N4N=CCC4c4cc(F)cc(F)c4)(C2)C3)cn1 (stereo not shown) [Example 124, 1-((3-(5-(3,5-difluorophenyl)-4,5-dihydro-1H-pyrazole-1-carbonyl)bicyclo[1.1.1]-pentan-1-yl)methyl)-1H-imidazole-4-carbonitrile]	156		751	
O=C(N1N=CCC1c1cc(F)cc(F)c1)C12CC(CF)(C1)C2 (stereo not shown) [Example 5, (5-(3,5-Difluorophenyl)-4,5-dihydro-1H-pyrazol-1-yl)(3-(fluoromethyl)-bicyclo[1.1.1]pentan-1-yl)methanone]	17		20	
1-((3-(5-(3,5-difluorophenyl)-4,5-dihydro-1H-pyrazole-1-carbonyl)bicyclo[1.1.1]-pentan-1-yl)methyl)-1H-benzo[d]imidazole-6-carbonitrile and 1-((3-(5-(3,5-difluorophenyl)-4,5-dihydro-1H-pyrazole-1-carbonyl)bicyclo[1.1.1]-pentan-1-yl)methyl)-1H-benzo[d]imidazole-5-carbonitrile [Example 186]	113			682
N#Cc1cnc2ncn(CC34CC(C(=O)N5N=CCC5c5cc(F)cc(F)c5)(C3)C4)c2c1 (stereo not shown) [Example 184, 1-((3-(5-(3,5-difluorophenyl)-4,5-dihydro-1H-pyrazole-1-carbonyl)bicyclo[1.1.1]-pentan-1-yl)methyl)-1H-imidazo[4,5-b]pyridine-6-carbonitrile or 3-((3-(5-(3,5-difluorophenyl)-4,5-dihydro-1H-pyrazole-1-carbonyl)bicyclo[1.1.1]pentan-1-yl)methyl)-3H-imidazo[4,5-b]pyridine-6-carbonitrile]	136			1240
N#Cc1ccc2c(cnn2CC23CC(C(=O)N4N=CCC4c4ccccc4)(C2)C3)c1 (stereo not shown) [Example 52, 1-((3-(5-phenyl-4,5-dihydro-1H-pyrazole-1-carbonyl)-bicyclo[1.1.1]pentan-1-yl)methyl)-1H-indazole-5-carbonitrile]	24		16	
